Source: patent publication US5654289A, “Disaccharide derivative” (Suntory Limited, priority 1993, dated 1997)
Like-named read-outs stand apart in the source and are kept apart here.

Experiments:
[1] = tested on: anti-BSA IgG antibody; assay: Adjuvant activity (serum anti-BSA IgG by ELISA); format: in vivo, mouse (BALB/c); settings: 100 μg compound with 100 μg BSA in FIA, s.c., days 0 and 28; day 5 after booster; BSA alone = 1.00
Experimental: In this test, male BALB/c mice (each group having 6 animals) were used. On the days 0 and 28, 100 μg of bovine serum albumin (BSA) containing 100 μg of the compound of the present invention on the comparative compound or no such a compound was subcutaneously injected into each animal in the form of a water-in-oil type emulsion in Freund's incomplete adjuvant (FIA). On the day 5 following the booster, the level of anti-BSA IgG antibody formed in the serum was determined by the ELISA method. […] [formula]

[2] = tested on: BALB/c mouse spleen cells; assay: Mitogenic activity (3H-thymidine incorporation into mouse spleen cells)
[3] = tested on: BALB/c mouse spleen cells; assay: Polyclonal B cell activation activity (ELISPOT); settings: 72 hours
[4] = tested on: rabbits; assay: Pyrogenicity test; settings: i.v., rabbit, feverish = rise of 0.6° C. or more
Experimental: In this test, rabbits were used and 5 ml/kg of the test compound diluted to a definite concentration with physiological saline was intravenously injected into each animal. Then the rectal temperature was measured. Rabbits showing an increase in the bodily temperature by 0.6° C. or more were referred to as feverish.

[5] = tested on: male C57BL mouse; assay: Galactosamine-loaded lethal toxicity test; format: in vivo; settings: 16 mg D-galactosamine/HCl i.p., compound i.v., 24 hours
Experimental: The galactosamine-loaded lethal toxicity was determined by using the following experimental system.
16 mg of D-galactosamine/HCl was intraperitoneally administered to a male C57BL mouse aged 8 weeks. Immediately thereafter, the compound of the present invention was intravenously injected into the animal and the conditions were observed after 24 hours.

[6] = tested on: vesicular stomatitis virus (VSV); format: cell-based, vesicular stomatitis virus; mouse L929 cells
[7] = tested on: TNF-α; assay: Cytokine inducing activity: TNF-α (ELISA), human peripheral blood monocytes; format: cell-based; settings: 24 hours
Experimental: (§1) The cytokine inducing activity was tested by using an ELISA system for assaying TNF-α (manufactured by Amersham Japan) and another ELISA system for assaying IL-1β (manufactured by Otsuka Pharmaceutical Co., Ltd.). […] Then the cytokines in the culture supernatant were assayed by the ELISA method.

[8] = tested on: Tachypleus tridentatus lysate; settings: Pregel reagent, gel formation
[9] = tested on: IL-1β; assay: Cytokine inducing activity: IL-1β (ELISA), human peripheral blood monocytes; format: cell-based
Experimental: as §1

[10] = tested on: male rabbit; assay: Local Shwartzman reaction; format: in vivo; settings: 100 μg/site intradermal, elicitation with Salmonella minnesota LPS i.v.
Experimental: This test was carried out in the following manner. The test compound, which had been diluted to a definite concentration with 0.2 ml of physiological saline, was intradermally injected into a male rabbit. After 24 hours, 100 μg/ml/kg of Salmonella minnesota 9700 LPS-W (manufactured by Difco) was intravenously injected into the animal for elicitation. After 4 hours, intradermal hemorrhage was observed.

[11] = tested on: methylcholanthrene-induced fibrosarcoma (Meth A); assay: Antitumor activity (macrophage cytostatic activity on Meth A fibrosarcoma); format: cell-based, mouse (BALB/c)
Experimental: This test was effected by examining a cytostatic activity on methylcholanthrene-induced fibrosarcoma (Meth A). Namely, adherent cells (macrophages) were collected from spleen cells of a BALB/c mouse. […] Then the ^3 H-thymidine-uptake suppression ratio was calculated by substituting the obtained values in accordance with the following formula and the result was expressed as the cytostatic activity on macrophages.
Cytostatic Activity (%)={1-(Radioactivity of macrophages and target cells-Radioactivity of macrophages alone)(cpm)/(Radioactivity of target cells along)}×100

[12] = tested on: Moloney virus-induced lymphoma YAC-1; assay: NK (natural killer) activity of spleen cells from treated mice against YAC-1 (51Cr release); format: in vivo, mouse (BALB/c)
Experimental: This test was carried out in the following manner. […] On the day 14, the spleen cells of the animal were collected. To the prepared spleen cells (1×10^6 cells/0.1 ml), target cells (Moloney virus-inducedlymphoma YAC-1; 2×10^4 cells/ml) labeled with ^51 Cr were added followed by the incubation for 4 hours. […] After the completion of the incubation, 0.1 ml of the culture supernatant was collected and the amount (radiation dose) of ^51 Cr liberated due to the damage in the target cells was measured. Then the NK activity (%) was calculated by substituting each value in accordance with the following formula. NK Activity (%)={(Radioactivity of test group-Radioactivity of minimum free control group)(cpm)/(Radioactivity maximum free control group-Radioactivity of minimum free control group)(cpm)}

[13] = tested on: IL-1 receptor antagonist (IL-1ra); assay: IL-1 receptor antagonist (IL-1ra) production (ELISA), human peripheral blood monocytes; format: cell-based
[14] = Mus musculus, read-out: Mitogen activity, Stimulation Index

SMILES: CCCCCCCCCCCCCC(=O)OC(CCCCCCCCCCC)CC(=O)O[C@@H]1[C@@H](NC(=O)CC(CCCCCCCCCCC)OC(=O)CCCCCCCCCCC)[C@H](OC[C@H]2O[C@H](OP(=O)(O)O)[C@H](NC(=O)CC(O)CCCCCCCCCCC)[C@@H](OC(=O)CCCCCCCCCCCCC)[C@@H]2O)O[C@H](CO)[C@H]1OP(=O)(O)O (stereo partly drawn) [Comparative compound 506, 6-O-[2-deoxy-2-(3-dodecanoyloxytetradecanoylamino)-3-O-(3-tetra-decanoyloxytetradecanoyl)-4-O-phosphono-β-D-glucopyranosyl]-2-deoxy-2-(3-hydroxytetradecanoylamino)-3-O-tetradecanoyl-1-O-phosphono-α-D-glucopyranose, reference compound]
- Adjuvant activity, Stimulation Index [1]: 1.99
- Mitogen activity, Stimulation Index ([2]; 50 μg/ml): 6.28
- Polyclonal B cell activation activity, Stimulation Index ([3]; 10 μg per 2.5×10^6 cells): 15.7
- Polyclonal B cell activation activity, Stimulation Index ([3]; 100 μg per 2.5×10^6 cells): 20.7
- Pyrogenicity ([4]; dose of 0.01 μg): showed pyrogenicity
- Galactosamine-loaded lethal toxicity, LD50 [5]: 0.0079 µg
- Antiviral activity (reciprocal of the dilution ratio to the 1 mg/ml sample wherein L929 cells survived at a ratio of 50%) [6]: 2.2

SMILES: CCCCCCCCCCCCCCCC(=O)OC(CCCCCCCCCCCC(C)C)CC(=O)NC1C(OCC2OC(OP(=O)(O)O)C(NC(=O)CC(O)CCCCCCCCCCCC(C)C)C(O)C2O)OC(CO)C(O)C1O (stereo not drawn) [Invention compound]
- Adjuvant activity, Stimulation Index [1]: 2.48
- fold induction at 5 µg/mL [2, 14]: 4.17
- fold induction at 50 µg/mL [2, 14]: 7.46
- activity of inducing the production of TNF-α [7]: little activity
- Limulus test, minimum effective dose relative to that of the synthetic lipid A 506 [8]: 1,000 times
- Polyclonal B cell activation activity, Stimulation Index ([3]; 10 μg per 2.5×10^6 cells): 22.0
- Polyclonal B cell activation activity, Stimulation Index ([3]; 100 μg per 2.5×10^6 cells): 30.3
- suppression of the production of IL-1β induced by LPS originating in Escherichia coli ([9]; added simultaneously, 50 times as much as LPS): suppressed the production of IL-1β
- suppression of the production of IL-1β induced by compound 506 ([9]; added simultaneously, 50 times as much as synthetic lipid A 506): suppressed the production of IL-1β
- activity of inducing the production of IL-1β ([9]; human peripheral blood monocytes, 24 hours): little activity
- Local Shwartzman reaction, hemorrhage [10]: no hemorrhage
- Pyrogenicity ([4]; dose of 10 μg/kg): showed no pyrogenicity
- inhibition at 10 µg/mL ([11]; 24 h, 10 μg/ml, Meth A with mouse macrophages): 58.6%
- inhibition at 100 µg/mL ([11]; 24 h, 100 μg/ml, Meth A with mouse macrophages): 64%
- Cytostatic activity, comparison with synthetic lipid A 506 ([11]; in words): comparable to that of the synthetic lipid A 506
- Galactosamine-loaded lethal toxicity, LD50 [5]: > 10 µg
- NK activity ([12]; 100 μg i.v. on days 0 and 7, spleen cells collected day 14, BALB/c mouse, YAC-1 targets, 4 hours): 50.1%
- NK activity, comparison with synthetic lipid A 506 ([12]; 100 μg i.v. on days 0 and 7, in words): comparable to the synthetic lipid A 506
- production of IL-1ra in the culture supernatant, compared with synthetic lipid A 506 [13]: in a larger amount than the synthetic lipid A 506 did
- Antiviral activity (reciprocal of the dilution ratio to the 1 mg/ml sample wherein L929 cells survived at a ratio of 50%) ([6]; VSV 100 TCID50/0.1 ml on L929 cells, 24 hours): 4.9
